# Data as given in patent US10131652B2, “Pyrimidinyloxy benzene derivatives as herbicides” (E. I. DU PONT DE NEMOURS AND COMPANY, priority 2014, dated 2018).
# Like-named read-outs stand apart in the source and are kept apart here.
# Legend:
# Type in all cases: in vivo
# [1] = test system: small-flower umbrella sedge (Cyperus difformis); assay: Test D flooded paddy test plant response; settings: Flood (flooded paddy test), visual rating on scale 0 to 100 (0 no effect, 100 complete control), 13 to 15 days
# Description: (§1) Plant species in the flooded paddy test consisted of rice (Oryza sativa), small-flower umbrella sedge (Cyperus difformis), ducksalad (Heteranthera limosa), and bamyardgrass (Echinochloa crus-galli) grown to the 2-leaf stage for testing. At time of treatment, test pots were flooded to 3 cm above the soil surface, treated by application of test compounds directly to the paddy water, and then maintained at that water depth for the duration of the test. Treated plants and controls were maintained in a greenhouse for 13 to 15 days, after which time all species were compared to controls and visually evaluated. Plant response ratings, summarized in Table D, are based on a scale of 0 to 100 where 0 is no effect and 100 is complete control. A dash (-) response means no test result.
# [2] = test system: barnyardgrass (Echinochloa crus-galli); assay: Test D flooded paddy test plant response; settings: Flood (flooded paddy test), visual rating on scale 0 to 100 (0 no effect, 100 complete control), 13 to 15 days
# Description: as §1
# [3] = test system: ducksalad (Heteranthera limosa); assay: Test D flooded paddy test plant response; settings: Flood (flooded paddy test), visual rating on scale 0 to 100 (0 no effect, 100 complete control), 13 to 15 days
# Description: as §1
# rice (Oryza sativa) = assay: Test D flooded paddy test plant response; settings: Flood (flooded paddy test), visual rating on scale 0 to 100 (0 no effect, 100 complete control), 13 to 15 days
# Description: as §1
# [4] = test system: wild mustard (Sinapis arvensis); assay: Test E pre-/postemergence plant response; settings: Brassica, scale 0 to 100, read-out: Plant response rating, Mustard, Wild; for pest or weed control at 16 g/ha: 16 g ai/ha; for pest or weed control at 31 g/ha: 31 g ai/ha; for pest or weed control at 62 g/ha: 62 g ai/ha; for pest or weed control at 125 g/ha: 125 g ai/ha
# Outline: (§2)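 Pre-emergence: seeds sown in silt loam soil and sprayed with test chemicals in a non-phytotoxic solvent/surfactant mix. Post-emergence: plants at 2–18 cm (1- to 4-leaf stage) in peat/vermiculite medium treated with the same formulation. Visual rating versus controls after 7–21 days, 0 (no effect) to 100 (complete control).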
# [5] = test system: chamomile (scentless chamomile, Matricaria inodora); assay: Test E pre-/postemergence plant response; settings: Tripleurospermum inodorum, scale 0 to 100, read-out: Plant response rating, Chamomile; for pest or weed control at 16 g/ha: 16 g ai/ha; for pest or weed control at 31 g/ha: 31 g ai/ha; for pest or weed control at 62 g/ha: 62 g ai/ha; for pest or weed control at 125 g/ha: 125 g ai/ha
# Outline: as §2
# [6] = test system: Italian ryegrass (Lolium multiflorum); assay: Test E pre-/postemergence plant response; settings: scale 0 to 100, read-out: Plant response rating, Ryegrass, Italian; for pest or weed control at 16 g/ha: 16 g ai/ha; for pest or weed control at 31 g/ha: 31 g ai/ha; for pest or weed control at 62 g/ha: 62 g ai/ha; for pest or weed control at 125 g/ha: 125 g ai/ha
# Outline: as §2
# [7] = test system: blackgrass (Alopecurus myosuroides); assay: Test E pre-/postemergence plant response; settings: scale 0 to 100, read-out: Plant response rating, Blackgrass; for pest or weed control at 16 g/ha: 16 g ai/ha; for pest or weed control at 31 g/ha: 31 g ai/ha; for pest or weed control at 62 g/ha: 62 g ai/ha; for pest or weed control at 125 g/ha: 125 g ai/ha
# Outline: as §2
SMILES,"pest or weed control at 16 g/ha ([4]; post-emergence, Postemergence)","pest or weed control at 31 g/ha ([4]; post-emergence, Postemergence)","pest or weed control at 62 g/ha ([4]; post-emergence, Postemergence)","pest or weed control at 125 g/ha ([4]; post-emergence, Postemergence)","pest or weed control at 16 g/ha ([4]; pre-emergence, Preemergence)","pest or weed control at 31 g/ha ([4]; pre-emergence, Preemergence)","pest or weed control at 62 g/ha ([4]; pre-emergence, Preemergence)","pest or weed control at 125 g/ha ([4]; pre-emergence, Preemergence)","pest or weed control at 16 g/ha ([5]; post-emergence, Postemergence)","pest or weed control at 31 g/ha ([5]; post-emergence, Postemergence)","pest or weed control at 62 g/ha ([5]; post-emergence, Postemergence)","pest or weed control at 125 g/ha ([5]; post-emergence, Postemergence)","pest or weed control at 16 g/ha ([6]; post-emergence, Postemergence)","pest or weed control at 31 g/ha ([6]; post-emergence, Postemergence)","pest or weed control at 62 g/ha ([6]; post-emergence, Postemergence)","pest or weed control at 125 g/ha ([6]; post-emergence, Postemergence)","pest or weed control at 16 g/ha ([6]; pre-emergence, Preemergence)","pest or weed control at 31 g/ha ([6]; pre-emergence, Preemergence)","pest or weed control at 62 g/ha ([6]; pre-emergence, Preemergence)","pest or weed control at 125 g/ha ([6]; pre-emergence, Preemergence)",further results
"FCc1cc(-c2ccccc2Oc2ncc(Cl)cn2)no1 [Compound 32, 5-chloro-2-[2-[5-(fluoromethyl)-3-isoxazolyl]phenoxy]pyrimidine]",,,,,,,,,,,,,,,,,,,,,"Plant response rating, Sedge, Umbrella ([1]; 31 g ai/ha): 0; Plant response rating, Sedge, Umbrella ([1]; 62 g ai/ha): 40; Plant response rating, Sedge, Umbrella ([1]; 125 g ai/ha): 65; Plant response rating, Sedge, Umbrella ([1]; 250 g ai/ha): 90; Plant response rating, Barnyardgrass ([2]; 31 g ai/ha): 0; Plant response rating, Barnyardgrass ([2]; 62 g ai/ha): 0; Plant response rating, Barnyardgrass ([2]; 125 g ai/ha): 10; Plant response rating, Barnyardgrass ([2]; 250 g ai/ha): 20; Plant response rating, Ducksalad ([3]; 31 g ai/ha): 0; Plant response rating, Ducksalad ([3]; 62 g ai/ha): 60; Plant response rating, Ducksalad ([3]; 125 g ai/ha): 65; Plant response rating, Ducksalad ([3]; 250 g ai/ha): 95; Plant response rating, Rice (rice (Oryza sativa); 31 g ai/ha): 0; Plant response rating, Rice (rice (Oryza sativa); 62 g ai/ha): 0; Plant response rating, Rice (rice (Oryza sativa); 125 g ai/ha): 0; Plant response rating, Rice (rice (Oryza sativa); 250 g ai/ha): 15"
"FC(F)c1cc(-c2ccccc2Oc2ncc(Cl)cn2)no1 [Compound 35, 5-chloro-2-[2-[5-(difluoromethyl)-3-isoxazolyl]phenoxy]pyrimidine]",90%,85%,85%,100%,20%,60%,95%,95%,5%,5%,5%,10%,0%,5%,25%,60%,0%,25%,35%,75%,"pest or weed control at 16 g/ha ([5]; pre-emergence, Preemergence): 5%; pest or weed control at 31 g/ha ([5]; pre-emergence, Preemergence): 10%; pest or weed control at 62 g/ha ([5]; pre-emergence, Preemergence): 70%; pest or weed control at 125 g/ha ([5]; pre-emergence, Preemergence): 70%; pest or weed control at 16 g/ha ([7]; post-emergence, Postemergence): 20%; pest or weed control at 31 g/ha ([7]; post-emergence, Postemergence): 35%; pest or weed control at 62 g/ha ([7]; post-emergence, Postemergence): 55%; pest or weed control at 125 g/ha ([7]; post-emergence, Postemergence): 60%; pest or weed control at 16 g/ha ([7]; pre-emergence, Preemergence): 30%; pest or weed control at 31 g/ha ([7]; pre-emergence, Preemergence): 60%; pest or weed control at 62 g/ha ([7]; pre-emergence, Preemergence): 65%; pest or weed control at 125 g/ha ([7]; pre-emergence, Preemergence): 95%"
"FC(F)c1cc(-c2ccccc2Oc2ncc(Br)cn2)no1 [Compound 62, 5-bromo-2-[2-[5-(difluoromethyl)-3-isoxazolyl]phenoxy]pyrimidine]",75%,100%,100%,100%,25%,80%,95%,100%,0%,5%,5%,10%,10%,20%,30%,35%,0%,0%,15%,25%,"pest or weed control at 16 g/ha ([5]; pre-emergence, Preemergence): 0%; pest or weed control at 31 g/ha ([5]; pre-emergence, Preemergence): 65%; pest or weed control at 62 g/ha ([5]; pre-emergence, Preemergence): 60%; pest or weed control at 125 g/ha ([5]; pre-emergence, Preemergence): 65%; pest or weed control at 16 g/ha ([7]; post-emergence, Postemergence): 15%; pest or weed control at 31 g/ha ([7]; post-emergence, Postemergence): 30%; pest or weed control at 62 g/ha ([7]; post-emergence, Postemergence): 40%; pest or weed control at 125 g/ha ([7]; post-emergence, Postemergence): 75%; pest or weed control at 16 g/ha ([7]; pre-emergence, Preemergence): 5%; pest or weed control at 31 g/ha ([7]; pre-emergence, Preemergence): 15%; pest or weed control at 62 g/ha ([7]; pre-emergence, Preemergence): 15%; pest or weed control at 125 g/ha ([7]; pre-emergence, Preemergence): 65%"
"Fc1cccc(Oc2ncc(Cl)cn2)c1-c1cc(C(F)(F)F)on1 [Compound 168, 5-chloro-2-[2-[5-(trifluoromethyl)-3-isoxazolyl]-3-fluorophenoxy]pyrimidine]",75%,95%,95%,95%,80%,80%,95%,100%,5%,5%,10%,10%,5%,10%,20%,25%,0%,0%,30%,75%,"pest or weed control at 16 g/ha ([7]; post-emergence, Postemergence): 15%; pest or weed control at 31 g/ha ([7]; post-emergence, Postemergence): 25%; pest or weed control at 62 g/ha ([7]; post-emergence, Postemergence): 35%; pest or weed control at 125 g/ha ([7]; post-emergence, Postemergence): 60%; pest or weed control at 16 g/ha ([7]; pre-emergence, Preemergence): 10%; pest or weed control at 31 g/ha ([7]; pre-emergence, Preemergence): 35%; pest or weed control at 62 g/ha ([7]; pre-emergence, Preemergence): 100%; pest or weed control at 125 g/ha ([7]; pre-emergence, Preemergence): 100%"
"FC(F)(F)c1cc(-c2ccccc2Oc2ncc(Cl)cn2)no1 [Compound 200, 5-chloro-2-[2-[5-(trifluoromethyl)-3-isoxazolyl]phenoxy]pyrimidine]",75%,95%,100%,100%,85%,95%,85%,100%,5%,10%,10%,15%,5%,10%,25%,40%,0%,25%,30%,85%,"pest or weed control at 16 g/ha ([5]; pre-emergence, Preemergence): 25%; pest or weed control at 31 g/ha ([5]; pre-emergence, Preemergence): 25%; pest or weed control at 62 g/ha ([5]; pre-emergence, Preemergence): 60%; pest or weed control at 125 g/ha ([5]; pre-emergence, Preemergence): 75%; pest or weed control at 16 g/ha ([7]; post-emergence, Postemergence): 15%; pest or weed control at 31 g/ha ([7]; post-emergence, Postemergence): 35%; pest or weed control at 62 g/ha ([7]; post-emergence, Postemergence): 55%; pest or weed control at 125 g/ha ([7]; post-emergence, Postemergence): 75%; pest or weed control at 16 g/ha ([7]; pre-emergence, Preemergence): 25%; pest or weed control at 31 g/ha ([7]; pre-emergence, Preemergence): 75%; pest or weed control at 62 g/ha ([7]; pre-emergence, Preemergence): 90%; pest or weed control at 125 g/ha ([7]; pre-emergence, Preemergence): 100%"
